Patent publication US20130040935A1, “CYCLIC KETO-ENOLS FOR THERAPY” (BAYER INTELLECTUAL PROPERTY GMBH, priority 2010, published 2013)
Where two headings read alike, the source gives them in different places.

Experiments:
[1] = molecular target: human ACC2 (acetyl-coenzyme A carboxylase 2) (Homo sapiens, UniProt O00763); assay: Human ACC2 enzyme assay, Assay B2 (ADP-Glo);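 also: human ACC2 activity read as ADP product, detected by luciferase glow luminescence after residual ATP removal, enzyme near 2 ng/µl in linear range, detection steps at 22 °C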
human ACC2 (acetyl-coenzyme A carboxylase 2), sequence (O00763 27-2458 limits assumed): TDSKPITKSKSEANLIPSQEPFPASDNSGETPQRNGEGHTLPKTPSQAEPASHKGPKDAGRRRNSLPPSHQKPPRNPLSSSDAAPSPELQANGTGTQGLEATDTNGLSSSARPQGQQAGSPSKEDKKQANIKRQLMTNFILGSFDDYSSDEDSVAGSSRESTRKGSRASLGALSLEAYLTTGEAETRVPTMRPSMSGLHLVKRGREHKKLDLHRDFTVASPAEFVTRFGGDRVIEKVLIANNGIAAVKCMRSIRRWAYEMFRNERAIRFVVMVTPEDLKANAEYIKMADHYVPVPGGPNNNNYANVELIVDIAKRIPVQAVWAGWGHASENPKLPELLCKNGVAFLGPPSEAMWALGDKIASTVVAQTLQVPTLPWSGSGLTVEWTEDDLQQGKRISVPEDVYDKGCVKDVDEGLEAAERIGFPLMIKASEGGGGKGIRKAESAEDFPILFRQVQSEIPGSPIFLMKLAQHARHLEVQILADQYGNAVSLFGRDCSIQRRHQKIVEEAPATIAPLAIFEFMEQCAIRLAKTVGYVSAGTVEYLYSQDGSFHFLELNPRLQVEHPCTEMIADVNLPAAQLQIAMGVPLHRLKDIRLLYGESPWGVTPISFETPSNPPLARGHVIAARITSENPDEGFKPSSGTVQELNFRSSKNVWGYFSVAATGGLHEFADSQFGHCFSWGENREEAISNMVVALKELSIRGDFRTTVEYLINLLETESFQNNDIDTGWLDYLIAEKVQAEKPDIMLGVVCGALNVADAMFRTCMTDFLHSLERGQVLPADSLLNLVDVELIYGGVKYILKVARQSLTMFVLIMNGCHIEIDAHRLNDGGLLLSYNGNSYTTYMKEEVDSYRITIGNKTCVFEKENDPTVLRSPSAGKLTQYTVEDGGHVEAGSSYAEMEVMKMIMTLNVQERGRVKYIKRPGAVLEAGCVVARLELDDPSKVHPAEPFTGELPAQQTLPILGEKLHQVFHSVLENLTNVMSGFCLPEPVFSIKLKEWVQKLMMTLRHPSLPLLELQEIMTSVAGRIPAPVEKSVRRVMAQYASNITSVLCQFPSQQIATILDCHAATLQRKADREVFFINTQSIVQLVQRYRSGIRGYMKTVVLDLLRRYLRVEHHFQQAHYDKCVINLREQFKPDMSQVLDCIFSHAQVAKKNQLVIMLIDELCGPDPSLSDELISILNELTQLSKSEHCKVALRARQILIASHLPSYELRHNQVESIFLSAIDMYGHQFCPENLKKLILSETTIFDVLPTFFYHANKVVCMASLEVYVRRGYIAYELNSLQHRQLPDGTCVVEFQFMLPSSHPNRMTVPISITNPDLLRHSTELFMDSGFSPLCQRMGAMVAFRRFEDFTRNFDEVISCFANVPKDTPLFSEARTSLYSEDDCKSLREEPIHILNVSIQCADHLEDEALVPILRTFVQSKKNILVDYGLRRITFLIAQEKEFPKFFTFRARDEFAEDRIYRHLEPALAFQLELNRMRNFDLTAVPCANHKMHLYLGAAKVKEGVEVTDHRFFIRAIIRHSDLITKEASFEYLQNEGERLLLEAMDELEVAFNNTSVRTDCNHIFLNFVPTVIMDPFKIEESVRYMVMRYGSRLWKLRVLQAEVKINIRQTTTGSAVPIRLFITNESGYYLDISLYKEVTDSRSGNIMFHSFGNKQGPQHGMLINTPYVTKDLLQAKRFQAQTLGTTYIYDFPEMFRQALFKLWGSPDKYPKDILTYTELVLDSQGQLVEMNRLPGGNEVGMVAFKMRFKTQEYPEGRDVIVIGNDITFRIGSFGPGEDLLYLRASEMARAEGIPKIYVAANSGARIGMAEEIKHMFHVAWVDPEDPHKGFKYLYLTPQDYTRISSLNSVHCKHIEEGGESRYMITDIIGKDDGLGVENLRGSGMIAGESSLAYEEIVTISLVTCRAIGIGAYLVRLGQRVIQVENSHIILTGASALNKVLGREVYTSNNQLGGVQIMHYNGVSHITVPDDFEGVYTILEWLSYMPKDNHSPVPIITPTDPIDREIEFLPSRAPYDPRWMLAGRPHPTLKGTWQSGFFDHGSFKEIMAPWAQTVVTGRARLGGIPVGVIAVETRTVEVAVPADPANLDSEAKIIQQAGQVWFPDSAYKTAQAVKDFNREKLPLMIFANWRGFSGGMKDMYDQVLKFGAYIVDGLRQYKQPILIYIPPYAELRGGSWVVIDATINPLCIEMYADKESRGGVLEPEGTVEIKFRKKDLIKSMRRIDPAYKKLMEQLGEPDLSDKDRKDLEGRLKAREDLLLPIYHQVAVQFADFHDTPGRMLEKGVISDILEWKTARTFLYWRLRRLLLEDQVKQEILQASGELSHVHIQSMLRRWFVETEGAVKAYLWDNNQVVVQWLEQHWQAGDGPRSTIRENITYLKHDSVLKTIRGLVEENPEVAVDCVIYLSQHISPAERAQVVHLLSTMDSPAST

[2] = molecular target: T1, human ACC1 (acetyl-coenzyme A carboxylase alpha transcript variant 1) (Homo sapiens, UniProt Q13085); assay: Human ACC1 enzyme assay, Assay B1 (ADP-Glo); format: biochemical
T1 construct: FLAG (C); made in house; host or cells: baculovirus-infected insect cells (Hi5)

[3] = Assay B1, read-out: ACC 1 (=B1) IC50
[4] = Assay B1, ADP-Glo, read-out: ACC 1 (=B1) IC50

Row | SMILES | IC50 [1] | IC50 [2, 3] | IC50 [2] | IC50 [2, 4]
1 | Cc1ccc(-c2ccc(Cl)cc2)cc1C1=C(O)C2(CCCC(C)C2)NC1=O (centres unmarked) [1-82, 3-(4′-chloro-4-methylbiphenyl-3-yl)-4-hydroxy-7-methyl-1-azaspiro[4.5]dec-3-en-2-one] | 1320 nM | 539 nM |  | 
2 | CCCC1CCC2(CC1)NC(=O)C(c1cc(-c3ccc(Cl)cc3)ccc1C)=C2O (centres unmarked) [1-83, 3-(4′-chloro-4-methylbiphenyl-3-yl)-4-hydroxy-8-propyl-1-azaspiro[4.5]dec-3-en-2-one] | 1880 nM | 582 nM |  | 
3 | Cc1ccc(-c2ccc(Cl)cc2)cc1C1=C(O)C2(CC2)NC1=O [1-84, 6-(4′-chloro-4-methylbiphenyl-3-yl)-7-hydroxy-4-azaspiro[2.4]hept-6-en-5-one] | > 20000 nM | 650 nM |  | 
4 | Cc1ccc(-c2ccc(Cl)cc2)cc1C1=C(O)C2(CCCC2)NC1=O [1-85, 3-(4′-chloro-4-methylbiphenyl-3-yl)-4-hydroxy-1-azaspiro[4.4]non-3-en-2-one] | 9210 nM | 251 nM |  | 
5 | Cc1ccc(-c2ccc(Cl)cc2)cc1C1=C(O)C(C)(C2CC2)NC1=O (centres unmarked) [1-86, 3-(4′-chloro-4-methylbiphenyl-3-yl)-5-cyclopropyl-4-hydroxy-5-methyl-1,5-dihydro-2H-pyrrol-2-one] | 6120 nM | 575 nM |  | 
6 | CC[C@]1(OC)CC[C@@]2(CC1)NC(=O)C(c1c(C)ccc(-c3ccc(Cl)cc3)c1C)=C2O [1-88, (5r,8r)-3-(4′-chloro-2,4-dimethylbiphenyl-3-yl)-8-ethyl-4-hydroxy-8-methoxy-1-azaspiro[4.5]dec-3-en-2-one] | 11700 nM |  | 452 nM | 
7 | CC[C@]1(OC)CC[C@@]2(CC1)NC(=O)C(c1c(C)ccc(-c3ccc(F)cc3)c1C)=C2O [1-89, (5r,8r)-8-ethyl-3-(4′-fluoro-2,4-dimethylbiphenyl-3-yl)-4-hydroxy-8-methoxy-1-azaspiro[4.5]dec-3-en-2-one] | 13600 nM |  | 2070 nM | 
8 | CCC1CCC2(CC1)OC(=O)C(c1cc(-c3ccc(Cl)cc3)ccc1C)=C2O (centres unmarked) [2-1, 3-(4′-chloro-4-methylbiphenyl-3-yl)-8-ethyl-4-hydroxy-1-oxaspiro[4.5]dec-3-en-2-one] | 15200 nM |  |  | 1140 nM
9 | Cc1ccc(-c2ccc(Cl)cc2)c(C)c1C1=C(O)C2(CCCC2)OC1=O [2-2, 3-(4′-chloro-2,4-dimethylbiphenyl-3-yl)-4-hydroxy-1-oxaspiro[4.4]non-32--en-2-one] | > 20000 nM |  | 2360 nM | 
10 | Cc1cc(C)c(-c2ccc(Cl)cc2)c(C)c1C1=C(O)C(C)(C)OC1=O [2-5, 3-(4′-chloro-2,4,6-trimethylbiphenyl-3-yl)-4-hydroxy-5,5-dimethylfuran-2(5H)-one] | 7340 nM |  | 1260 nM | 
11 | Cc1ccc(-c2ccc(Cl)cc2)cc1C1=C(O)C2(CCCCC2)OC1=O [2-10, 3-(4′-chloro-4-methylbiphenyl-3-yl)-4-hydroxy-1-oxaspiro[4.5]dec-3-en-2-one] | 4700 nM |  |  | 67 nM
12 | COC1CCCC2(C1)OC(=O)C(c1cc(-c3ccc(Cl)cc3)c(C)cc1C)=C2O (centres unmarked) [2-11, 3-(4′-chloro-4,6-dimethylbiphenyl-3-yl)-4-hydroxy-7-methoxy-1-oxaspiro[4.5]dec-3-en-2-one] | 12400 nM |  |  | 1260 nM
13 | COC1CCCC2(C1)OC(=O)C(c1cc(-c3ccc(Cl)cc3)ccc1C)=C2O (centres unmarked) [2-14, 3-(4′-chloro-4-methylbiphenyl-3-yl)-4-hydroxy-7-methoxy-1-oxaspiro[4.5]dec-3-en-2-one] | > 20000 nM |  |  | 772 nM
14 | Cc1ccc(-c2ccc(Cl)cc2)cc1C1=C(O)C2(CCC3(CC2)OCCO3)OC1=O [2-15, 11-(4′-chloro-4-methylbiphenyl-3-yl)-12-hydroxy-1,4,9-trioxadispiro[4.2.4.2]tetradec-11-en-10-one] | 8020 nM |  |  | 111 nM
15 | COCC1CCC2(CC1)OC(=O)C(c1cc(-c3ccc(Cl)cc3)ccc1Cl)=C2O (centres unmarked) [2-16, 3-(4,4′-dichlorobiphenyl-3-yl)-4-hydroxy-8-(methoxymethyl)-1-oxaspiro[4.5]dec-3-en-2-one] | 5310 nM |  | 138 nM | 
16 | COCCC1CCCC2(C1)OC(=O)C(c1cc(-c3ccc(Cl)cc3)ccc1Cl)=C2O (centres unmarked) [2-19, 3-(4,4′-dichlorobiphenyl-3-yl)-4-hydroxy-7-(2 methoxyethyl)-1-oxaspiro[4.5]dec-3-en-2-one] | 13600 nM |  |  | 812 nM
17 | O=C1OC2(CCC3(CCCO3)CC2)C(O)=C1c1cc(-c2ccc(Cl)cc2)ccc1Cl (centres unmarked) [2-27, 3-(4,4′-dichlorobiphenyl-3-yl)-4-hydroxy-1,9-dioxadispiro[4.2.4.2]tetradec-3-en-2-one] | 7010 nM |  | 801 nM | 
18 | Cc1ccc(-c2ccc(Cl)cc2)cc1C1=C(O)C2(CCC3(CCCO3)CC2)OC1=O (centres unmarked) [2-29, 3-(4′-chloro-4-methylbiphenyl-3-yl)-4-hydroxy-1,9-dioxadispiro[4.2.4.2]tetradec-3-en-2-one] | 3000 nM |  |  | 206 nM
19 | CCCC1CCC2(CC1)OC(=O)C(c1cc(-c3ccc(Cl)cc3)ccc1C)=C2O (centres unmarked) [2-36, 3-(4′-chloro-4-methylbiphenyl-3-yl)-4-hydroxy-8-propyl-1-oxaspiro[4.5]dec-3-en-2-one] | 2410 nM |  | 447 nM | 
20 | Cc1ccc(-c2ccc(Cl)cc2)cc1C1=C(O)C2(CCCCCC2)OC1=O [2-38, 3-(4′-chloro-4-methylbiphenyl-3-yl)-4-hydroxy-1-oxaspiro[4.6]undec-3-en-2-one] | 7380 nM |  | 393 nM | 
21 | COC1CCC2(CC1)OC(=O)C(c1cc(-c3ccc(Cl)cc3)ccc1C)=C2O (centres unmarked) [2-39, 3-(4′-chloro-4-methylbiphenyl-3-yl)-4-hydroxy-8-methoxy-1-oxaspiro[4.5]dec-3-en-2-one] | 5270 nM |  |  | 162 nM
22 | Cc1cc(C)c(-c2ccc(Cl)cc2)cc1C1=C(O)C2(CCOCC2)OC1=O [2-41, 3-(4′-chloro-4,6-dimethylbiphenyl-3-yl)-4-hydroxy-1,8-dioxaspiro[4.5]dec-3-en-2-one] | 6590 nM |  |  | 425 nM
23 | Cc1cc(C)c(-c2ccc(Cl)cc2)cc1C1=C(O)C2(CCCOC2)OC1=O (centres unmarked) [2-46, 3-(4′-chloro-4,6-dimethylbiphenyl-3-yl)-4-hydroxy-1,7-dioxaspiro[4.5]dec-3-en-2-one] | 5260 nM |  |  | 420 nM
24 | Cc1cc(C)c(-c2ccc(Cl)cc2)c(C)c1C1=C(O)C2(CCCC2)OC1=O [2-49, 3-(4′-chloro-2,4,6-trimethylbiphenyl-3-yl)-4-hydroxy-1-oxaspiro[4.4]non-3-en-2-one] | > 20000 nM |  | ≥ 20000 nM | 
25 | Cc1ccc(-c2cccc(Cl)c2)cc1C1=C(O)C2(CCCCCC2)OC1=O [2-50, 3-(3′-chloro-4-methylbiphenyl-3-yl)-4-hydroxy-1-oxaspiro[4.6]undec-3-en-2-one] | 15400 nM |  | 1300 nM | 
26 | COC1CCC2(CC1)SC(=O)C(c1cc(-c3ccc(Cl)cc3)ccc1C)=C2O (centres unmarked) [3-1, 3-(4′-chloro-4-methylbiphenyl-3-yl)-4-hydroxy-8-methoxy-1-thiaspiro[4.5]dec-3-en-2-one] | 15500 nM |  | 1410 nM | 
27 | Cc1ccc(-c2cccc(Cl)c2)cc1C1=C(O)C2(CCCCC2)CC1=O [6-3, 3-(3′-chloro-4-methylbiphenyl-3-yl)-4-hydroxyspiro[4.5]dec-3-en-2-one] | > 20000 nM | 1170 nM |  | 
28 | Cc1ccc(-c2ccc(Cl)cc2)cc1C1=C(O)C2(CCCC2)CC1=O [6-4, 3-(4′-chloro-4-methylbiphenyl-3-yl)-4-hydroxyspiro[4.4]non-3-en-2-one] | 4630 nM | 218 nM |  | 
